{
  "source": "patent US6960683B2",
  "about": "“Salt forms of poorly soluble probucol esters and ethers” (Atherogenics, Inc., priority 2002, dated 2005)",
  "key": {"Solubility in water": {"assay": "Solubility in water", "assay_type": "physicochemical", "settings": "for solubility: water, 25 °C"}, "VCAM-1": {"system": "VCAM-1", "assay": "In Vitro VCAM-1 Assay (ELISA of TNF-α-stimulated endothelial cells)", "assay_type": "cell-based, human", "settings": "HAEC or HPAEC cells stimulated with TNF-α (1 ng/ml), approx. 16 h, n = 3", "procedure": "Cell Culture and compound dosing: Cultured primary human aortic (HAEC) or pulmonary (HPAEC) endothelial cells were obtained from Clonetics, Inc., and were used below passage 9. Cells were seeded in 96 well plates such that they would reach 90-95% confluency by the following day. On the following day the cells were stimulated with TNF-α (1 ng/ml) in the presence or absence of compounds dissolved in DMSO such that the final concentration of DMSO is 0.25% or less. To establish a dose curve for each compound, four concentrations in 2- to 5-fold increments were used. Cells were exposed to TNF-α and compounds for approximately 16 hours. The next day the cells were examined under microscope to score for visual signs of toxicity or cell stress.\nFollowing 16 hr exposure to TNF-α and compound the media was discarded and the cells were washed once with Hanks Balanced Salt Solution (HBSS)/Phosphate buffered saline (PBS) (1:1). Primary antibodies against VCAM-1 (0.25 μg/ml in HBSS/PBS+5% FBS) were added and incubated for 30-60 minutes at 37° C. Cells were washed with HBSS/PBS three times, and secondary antibody Horse Radish Peroxidase (HRP)-conjugated goat anti-mouse IgG (1:500 in HBSS/PBS+5% FBS) were added and incubated for 30 minutes at 37° C. Cells were washed with HBSS/PBS four times and TMB substrate were added and incubated at room temperature in the dark until there was adequate development of blue color. The length of time of incubation was typically 5-15 minutes. 2N sulfuric acid was added to stop the color development and the data was collected by reading the absorbance on a BioRad ELISA plate reader at OD 450 nm. The results are expressed as IC50 values (the concentration (micromolar) of compound required to inhibit 50% of the maximal response of the control sample stimulated by TNF-α only). IC50's of the Examples and the free acid of the Examples are tabulated in VCAM-1 Table 1a."}, "[1]": {"settings": "meglumine salt of the Example, ˜25° C., read-out: Solubility (μg/ml) @ ˜25° C."}, "[2]": {"settings": "meglumine salt, value given in the synthesis example, read-out: Solubility in water"}, "[3]": {"settings": "Homo sapiens, Endothelial cell, meglumine salt of the Example, read-out: IC50 (μM) (n = 3)"}, "[4]": {"settings": "free acid of the Example, ˜25° C., read-out: Solubility, Free acid (μg/ml) @ ˜25° C."}, "[5]": {"settings": "Homo sapiens, Endothelial cell, free acid of the Example, read-out: IC50 (μM) of the free acid (n = 3)"}},
  "note": "Counter-ions that a name gives are not always drawn. Like-named read-outs stand apart in the source and are kept apart here.",
  "data": [
    {"molecule": "CC(C)(Sc1cc(C(C)(C)C)c(O)c(C(C)(C)C)c1)Sc1cc(C(C)(C)C)c(OC(=O)CCC(=O)O)c(C(C)(C)C)c1", "note": "[Example 1 free acid, Butanedioic acid, mono [4-[[1-[[3,5-bis(1,1-dimethylethyl)-4-hydroxyphenyl]thio]-1-methylethyl]thio]-2,6-bis(1,1-dimethylethyl)phenyl]ester, reference compound]", "values": [
      {"measurement": "Solubility, Free acid (μg/ml) @ ˜25° C.", "setting": "Solubility in water; free acid of the Example, ˜25° C.", "value": "<5", "unit": "µg/mL"},
      {"measurement": "IC50", "setting": "VCAM-1; free acid of the Example, read-out: IC50 (μM) of the free acid (n = 3)", "value": 7.7, "unit": "µM"}
    ]},
    {"molecule": "CC(C)(Sc1cc(C(C)(C)C)c(O)c(C(C)(C)C)c1)Sc1cc(C(C)(C)C)c(OCCCC(=O)O)c(C(C)(C)C)c1", "note": "[Example 3, Butanoic Acid, 4-[4-[[1-[[3,5-bis(1,1-dimethylethyl)4-hydroxyphenyl]thio]-1-methylethyl]-thio]-2,6-bis(1,1-dimethylethyl)phenoxy]-, Meglumine Salt]", "values": [
      {"measurement": "solubility", "setting": "Solubility in water; [1]", "value": 1910, "unit": "µg/mL"},
      {"measurement": "solubility", "setting": "Solubility in water; [2]", "value": 1910, "unit": "µg/mL"},
      {"measurement": "IC50", "setting": "VCAM-1; [3]", "value": 12, "unit": "µM"}
    ]},
    {"molecule": "CC(C)(Sc1cc(C(C)(C)C)c(O)c(C(C)(C)C)c1)Sc1cc(C(C)(C)C)c(OC(=O)CCC(=O)O)c(C(C)(C)C)c1", "note": "[Example 1, Butanedioic Acid, Mono [4-[[1-[[3,5-bis(1,1-dimethylethyl)-4-hydroxyphenyl]thio]-1-methylethyl]thio]-2,6-bis(1,1-dimethylethyl)phenyl]Ester Meglumine Salt]", "values": [
      {"measurement": "solubility", "setting": "Solubility in water; [1]", "value": 390, "unit": "µg/mL"},
      {"measurement": "solubility", "setting": "Solubility in water; [2]", "value": 390, "unit": "µg/mL"},
      {"measurement": "IC50", "setting": "VCAM-1; [3]", "value": 13, "unit": "µM"}
    ]},
    {"molecule": "CC(C)(Sc1cc(C(C)(C)C)c(O)c(C(C)(C)C)c1)Sc1cc(C(C)(C)C)c(OCCCC(=O)O)c(C(C)(C)C)c1", "note": "[Example 3 free acid, Butanoic acid, 4-[4-[[1-[[3,5-bis(1,1-dimethylethyl)4-hydroxyphenyl]thio]-1-methyl-ethyl]thio]-2,6-bis(1,1-dimethylethyl)phenoxy]-, reference compound]", "values": [
      {"measurement": "solubility", "setting": "Solubility in water; [4]", "value": "< 5", "unit": "µg/mL"},
      {"measurement": "IC50", "setting": "VCAM-1; [5]", "value": 11, "unit": "µM"}
    ]},
    {"molecule": "CC(C)(Sc1cc(C(C)(C)C)c(O)c(C(C)(C)C)c1)Sc1cc(C(C)(C)C)c(OCC(=O)O)c(C(C)(C)C)c1", "note": "[Example 2, Acetic Acid, [4-[[1-[[3,5-bis(1,1-dimethylethyl)-4-hydroxyphenyl]thio]-1-methylethyl]thio]-2,6-bis(1,1-dimethylethyl)phenoxy]-, Meglumine Salt]", "values": [
      {"measurement": "solubility", "setting": "Solubility in water; [1]", "value": 1010, "unit": "µg/mL"},
      {"measurement": "solubility", "setting": "Solubility in water; [2]", "value": 1010, "unit": "µg/mL"},
      {"measurement": "IC50", "setting": "VCAM-1; [3]", "value": 6.5, "unit": "µM"}
    ]},
    {"molecule": "CC(C)(Sc1cc(C(C)(C)C)c(O)c(C(C)(C)C)c1)Sc1cc(C(C)(C)C)c(OCC(=O)O)c(C(C)(C)C)c1", "note": "[Example 2 free acid, Acetic acid, [4-[[1-[[3,5-bis(1,1-dimethylethyl)-4-hydroxyphenyl]thio]-1-methyl-ethyl]thio]-2,6-bis(1,1-dimethylethyl)phenoxy]-, reference compound]", "values": [
      {"measurement": "solubility", "setting": "Solubility in water; [4]", "value": "< 5", "unit": "µg/mL"},
      {"measurement": "IC50", "setting": "VCAM-1; [5]", "value": 10, "unit": "µM"}
    ]}
  ]
}
